The text below walks through data of patent publication US20140249143A1, “Compounds And Methods For Enhancing Innate Immune Responses” (GlaxoSmithKline LLC, priority 2011, published 2014).

Format in all cases: cell-based
The test system of assay [1] is ISG56 (Interferon-Stimulated Gene 56) promoter ISRE. Kind of assay: ISG56 luciferase reporter assay in HEK 293 cells. The note with it: Homo sapiens, HEK293; HEK 293 reporter, 24 hours; 100% = small molecule control test compound; read-out: ISG56 (Average Max Response) %. The method, then: Compounds of the present invention were tested against a HEK (Human Embryonic Kidney) 293 cell line that was stably transfected with a firefly luciferase reporter gene under the control of the ISG56 (Interferon-Stimulated Gene 56) promoter ISRE (Interferon-Stimulated Response Element). While the ISRE is in the opposite orientation of the wild type promoter, literature^1 cites that the response elements are pallindromic and function properly in either orientation. ^1Reich, N., Evans, B., Levy, D., Fahey, D., Knight, E., Damell, J. E. (1987) Interferon-induced transcription of a gene encoding a 15-kDa protein depends on an upstream enhancer element. See, Proc. Natl. Acad. Sci. 84, (6394-6398).
In preparation for the assay, test compounds were serially diluted 3-fold in DMSO from a typical top concentration of 5 mM and plated at 0.2 μL in a 384-well, polystyrene, tissue culture treated plate with lid (Greiner Bio-One North America, Inc., Monroe, N.C.) to generate 11-point dose response curves in the assay. Low control wells (0% response) contained 0.2 μL of DMSO alone, and high control wells (100% response) contained 0.2 μL of a small molecule control test compound.
Frozen stocks of the transfected HEK 293 cells were washed and recovered in DMEM I Ham's F-12 media (Invitrogen Corporation, Carlsbad, Calif.) supplemented with 10% v/v qualified Australian fetal bovine serum (FBS) (Invitrogen Corporation, Carlsbad, Calif.), 1× GlutaMAX™ (Invitrogen Corporation, Carlsbad, Calif.), 1×MEM non-essential amino acids (NEAA) (Invitrogen Corporation, Carlsbad, Calif.) and 500 μg/ml Geneticin® (Invitrogen Corporation, Carlsbad, Calif.). The cells were diluted to 500,000 cells/mL in the supplemented DMEM/Ham's F-12 media, and 20 μL of the cell suspension were added to each well of the previously prepared 384-well compound plate, resulting in 10,000 cells/well. The plate, with lid, were placed in a 37° C., 5% CO2 humidified incubator for 24 hours.
Following incubation, the plates were removed and placed on the bench top without lids to equilibrate to room temperature for 30 minutes. Steady-Glo® (Promega Corporation, Madison, Wis.) was prepared according to the manufacturer's instructions, and 10 μL were added to each plate well. After a twenty minute incubation at room temperature, luminescence was read on a ViewLux™ (PerkinElmer Inc., Waltham, Mass.).
The data for dose responses were plotted as % activation versus compound concentration following normalization using the formula 100*((U−C1)/(C2−C1)), where U was the unknown value, C1 was the average of the low (0% response) control wells and C2 was the average of the high (100% response) control wells. Curve fitting was performed with the equation y=A+((B−A)/(1+(10^x/10^C)^D)), where A was the minimum response, B was the maximum response, C was the log(EC50) and D was the Hill slope. The results for each test compound were recorded as pEC50 values (—C in the above equation) and as max response values at a given concentration.
For orientation: A reporter such as luciferase makes a cellular process visible.

Assay [2] has as its system HCV genotype 1b subgenomic replicon. Kind of assay: Anti-Hepatitis C replicon assay, genotype 1b (luciferase). The note with it: Hepatitis C virus; luciferase activity measured 48 hours later; read-out: HCV Genotype 1B Replicon pEC50 (converted). The method, then:
(§1) Compounds were assayed for activity against HCV using the genotype 1a and 1b subgenomic replicon model systems. Stable cell lines bearing the genotype 1a and 1b replicons were used for screening of compounds. Both replicons are bicistonic and contain the firefly luciferase gene. The ET cell line is stably transfected with RNA transcripts harboring a I389luc-ubi-neo/NS3-3′/ET replicon with firefly luciferase-ubiquitin-neomycin phosphotransferase fusion protein and EMCV-IRES driven NS3-5B polyprotein containing the cell culture adaptive mutations (E1202G; T1280I; K1846T) (Krieger at al, 2001 and unpublished). The genotype 1a replicon is a stable cell line licensed from Apath LLC, modified to contain the firefly luciferase gene. The cells were grown in DMEM, supplemented with 10% fetal calf serum, 2 mM Glutamine, Penicillin (100 IU/mL)/Streptomycin (100 μg/mL), 1× nonessential amino acids, and 250-500 μg/mL G418 (“Geneticin”). They were all available through Life Technologies (Bethesda, Md.). The cells were plated at 0.5×10^4 cells/well in 384 well plates containing compounds. The final concentration of compounds ranged between 0.03 pM to 50 μm and the final DMSO concentration of 0.5-1%.
(§2) Luciferase activity was measured 48 hours later by adding a Steady glo (Promega, Madison, Wis.). Percent inhibition of replication data was plotted relative to no compound control. Under the same condition, cytotoxicity of the compounds was determined using cell titer glo (Promega, Madison, Wis.). IC50s were determined from a 10 point dose response curve using 3-4-fold serial dilution for each compound, which spans a concentration range>1000 fold. BioAssay determines the level of inhibition for each compound by normalizing cross-talk corrected plate values against the negative (low or background, cells with no compound present) and positive (high DMSO, no cells) controls to determine Percent Inhibition:
(§3) These normalized values are exported to IC50 where they are plotted against the molar compound concentrations using the standard four parameter logistic equation: […]
For orientation: Replicon systems follow genome replication, usually without infectious particles.

Assay [3] concerns HCV genotype 1a subgenomic replicon. In words: Anti-Hepatitis C replicon assay, genotype 1a (luciferase). The conditions noted are these: Hepatitis C virus; luciferase activity measured 48 hours later; read-out: HCV Genotype 1A Replicon pEC50 (converted). The method, then: as §1, §2, §3

As to `Cc1c(-c2nnco2)nc2ccc3c(C(F)(F)F)cc(C(F)(F)F)nc3n12` [Compound 9, 2-[9-methyl-2,4-bis(trifluoromethyl)imidazo[1,2-a]1,8-naphthyridin-8-yl]-1,3,4-oxadiazole], the Emax in assay [1] came out at 262%. For the same compound, the EC50 in assay [2] is 794 nM; in assay [3], 158 nM.
On to `CC(C)c1cc(C(C)C)c2ccc3nc(-c4nnco4)cn3c2n1` [Compound 30, 2-[2,4-bis(propan-2-yl)imidazo[1,2-a]1,8-naphthyridin-8-yl]-1,3,4-oxadiazole], for which the EC50 in assay [2] is 1000 nM; in assay [3], 316 nM.
`FC(F)(F)c1cc(-c2ccccc2)nc2c1ccc1nc(-c3nnco3)cn12` [Compound 17, 2-[2-phenyl-4-(trifluoromethyl)imidazo[1,2-a]1,8-naphthyridin-8-yl]-1,3,4-oxadiazole]: in assay [1], the Emax stood at 31.5%. Moreover, the EC50 in assay [2] was 1260 nM; in assay [3] it was 501 nM.
Consider `FC(F)(F)c1cc(-c2ccoc2)nc2c1ccc1nc(-c3nnco3)cn12` [Compound 12, 2-[2-(furan-3-yl)-4-(trifluoromethyl)imidazo[1,2-a]1,8-naphthyridin-8-yl]-1,3,4-oxadiazole], for which the Emax in assay [1] worked out at 13.5%. For the same compound, the figures for the EC50 in assay [2] and in assay [3] were 794 nM and 398 nM, respectively.
Take `FC(F)(F)c1cc(-c2ccsc2)nc2c1ccc1nc(-c3nnco3)cn12` [Compound 6, 2-[2-(thiophen-3-yl)-4-(trifluoromethyl)imidazo[1,2-a]1,8-naphthyridin-8-yl]-1,3,4-oxadiazole]: the Emax in assay [1] came out at 7.75%. In addition, the results for the EC50 in assay [2] and in assay [3] were 501 nM and 200 nM, respectively.
For the compound `FC(F)(F)c1cc(Cl)nc2c1ccc1nc(-c3nnco3)cn12` [Compound 29, 2-[2-chloro-4-(trifluoromethyl)imidazo[1,2-a]1,8-naphthyridin-8-yl]-1,3,4-oxadiazole], the Emax in assay [1] was determined as 10%. Further, the EC50 in assay [2] is 7940 nM; in assay [3] it was 6310 nM.
Consider `FC(F)(F)c1cc(C(F)(F)F)c2ccc3nc(-c4ccco4)cn3c2n1` [Compound 25, 8-(furan-2-yl)-2,4-bis(trifluoromethyl)imidazo[1,2-a]1,8-naphthyridine], for which, in assay [1], the Emax came to 6.5%. Also, the EC50 in assay [2] was 3160 nM; in assay [3] it was 3980 nM.
For `FC(F)(F)c1cc(C(F)(F)F)c2ccc3cc(-c4nnco4)[nH]c3c2n1` [Compound 15, 2-[6,8-bis(trifluoromethyl)-1H-pyrrolo[3,2-h]quinolin-2-yl]-1,3,4-oxadiazole], the Emax in assay [1] was determined as 63.5%. Besides, the values for the EC50 in assay [2] and in assay [3] were 1000 nM and 398 nM, respectively.
For the compound `Cc1cc(C)c2ccc3nc(-c4nnco4)cn3c2n1` [Compound 26, 2-{2,4-dimethylimidazo[1,2-a]1,8-naphthyridin-8-yl}-1,3,4-oxadiazole], in assay [1], the Emax was found to be 8%. Moreover, the EC50 was 5010 nM in assay [2] and 6310 nM in assay [3].
As for `FC(F)(F)c1cc(C(F)(F)F)c2ccc3nc(-c4cnco4)cn3c2n1` [Compound 4, 5-[2,4-bis(trifluoromethyl)imidazo[1,2-a]1,8-naphthyridin-8-yl]-1,3-oxazole], the Emax in assay [1] was determined as 178%. For the same compound, the EC50 is 398 nM in assay [2] and 126 nM in assay [3].
Turning to `FC(F)(F)c1cc(-c2cccnc2)nc2c1ccc1nc(-c3nnco3)cn12` [Compound 19, 3-[8-(1,3,4-oxadiazol-2-yl)-4-(trifluoromethyl)imidazo[1,2-a]1,8-naphthyridin-2-yl]pyridine], in assay [1], the Emax is 9%. The EC50 in assay [2] was 1580 nM; in assay [3], 12600 nM.
The matching figures for `CCOc1cc(C(F)(F)F)c2ccc3nc(-c4nnco4)cn3c2n1` [Compound 10, 2-[2-ethoxy-4-(trifluoromethyl)imidazo[1,2-a]1,8-naphthyridin-8-yl]-1,3,4-oxadiazole]: 10%, 794 nM and 1000 nM.
In the same order, the values of `FC(F)(F)c1cc(C(F)(F)F)c2ccc3nc(-c4ncco4)cn3c2n1` [Compound 27, 2-[2,4-bis(trifluoromethyl)imidazo[1,2-a]1,8-naphthyridin-8-yl]-1,3-oxazole] are 29%, 6310 nM and 2510 nM.
In the case of `FC(F)(F)c1cc(C(F)(F)F)c2ccc3nc(-c4nnco4)c(Cl)n3c2n1` [Compound 18, 2-[9-chloro-2,4-bis(trifluoromethyl)imidazo[1,2-a]1,8-naphthyridin-8-yl]-1,3,4-oxadiazole], the Emax in assay [1] was determined as 27%. Moreover, the results for the EC50 in assay [2] and in assay [3] were 1580 nM and 251 nM, respectively.
For `FC(F)Oc1cc(C(F)(F)F)c2ccc3nc(-c4nnco4)cn3c2n1` [Compound 20, 2-[2-(difluoromethoxy)-4-(trifluoromethyl)imidazo[1,2-a]1,8-naphthyridin-8-yl]-1,3,4-oxadiazole], the Emax in assay [1] amounted to 13.5%. In addition, the figures for the EC50 in assay [2] and in assay [3] were 1580 nM and 1000 nM, respectively.
The matching figures for `FC(F)(F)c1cc(C2CC2)nc2c1ccc1nc(-c3nnco3)cn12` [Compound 5, 2[2-cyclopropyl-4-(trifluoromethyl)imidazo[1,2-a]1,8-naphthyridin-8-yl]-1,3,4-oxadiazole]: 151%, 398 nM and 100 nM.
`CC(C)c1cc(Cl)c2ccc3nc(-c4nnco4)cn3c2n1` [Compound 23, 2-[4-chloro-2-(propan-2-yl)imidazo[1,2-a]1,8-naphthyridin-8-yl]-1,3,4-oxadiazole]: in assay [1], the Emax was found to be 110%. For the same compound, the values for the EC50 in assay [2] and in assay [3] were 3160 nM and 1260 nM, respectively.
Consider `CCc1cc(C(F)(F)F)c2ccc3nc(-c4nnco4)cn3c2n1` [Compound 13, 2-[2-ethyl-4-(trifluoromethyl)imidazo[1,2-a]1,8-naphthyridin-8-yl]-1,3,4-oxadiazole], for which the Emax in assay [1] came to 346%. The EC50 was 1000 nM in assay [2] and 398 nM in assay [3].
As for `CC(C)c1cc(-c2ccccc2)c2ccc3nc(-c4nnco4)cn3c2n1` [Compound 31, 2-[4-phenyl-2-(propan-2-yl)imidazo[1,2-a]1,8-naphthyridin-8-yl]-1,3,4-oxadiazole], the results for the EC50 in assay [2] and in assay [3] were 1260 nM and 398 nM, respectively.
As to `Cc1cc(C(F)(F)F)c2ccc3nc(-c4nnco4)cn3c2n1` [Compound 7, 2-[2-methyl-4-(trifluoromethyl)imidazo[1,2-a]1,8-naphthyridin-8-yl]-1,3,4-oxadiazole], the EC50 in assay [2] was 631 nM; in assay [3], 1260 nM.
